From US20240247042A1, “GLUCAGON LIKE PEPTIDE COMPOUNDS” (Novartis AG, priority 2021, published 2024)

Columns and labels:
Assay type in all cases: cell-based
human GLP1R (hGLP1R) [1] = biological target: T1, human GLP1R (hGLP1R) (Homo sapiens, UniProt P43220); assay: Human GLP1R cAMP agonist assay (GloSensor)
Target sequence in this assay (P43220 24-463): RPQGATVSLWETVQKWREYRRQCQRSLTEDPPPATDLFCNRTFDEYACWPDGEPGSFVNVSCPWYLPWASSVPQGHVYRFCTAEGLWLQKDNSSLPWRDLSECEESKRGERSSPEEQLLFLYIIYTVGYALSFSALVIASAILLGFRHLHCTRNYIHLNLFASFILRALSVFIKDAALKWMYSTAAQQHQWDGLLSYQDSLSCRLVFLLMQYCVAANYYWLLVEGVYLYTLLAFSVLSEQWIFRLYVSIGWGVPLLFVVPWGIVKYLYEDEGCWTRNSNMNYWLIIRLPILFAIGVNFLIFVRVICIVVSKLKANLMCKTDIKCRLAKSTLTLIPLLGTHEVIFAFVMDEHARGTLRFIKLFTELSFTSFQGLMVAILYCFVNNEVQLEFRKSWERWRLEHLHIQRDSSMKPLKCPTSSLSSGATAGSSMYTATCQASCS
Method: Compounds described herein were tested in the following cellular assays that measures the intracellular cAMP concentration. The cAMP is generated by the activation of GLP1R. EC50 is defined as the concentration of the compound that leads to half of the maximum response (after baseline correction).
The agonist activity of compounds was determined using the GloSensor™ cAMP Assay (Promega Corp.), which measures changes in the intracellular concentration of cAMP after ligand activation of GPCRs. The assay uses a biosensor encoded by pGloSensor™-22F cAMP plasmid (Promega, cat #E2301) with cAMP binding domains fused to a mutant form of Photinus pyralis luciferase. Binding to cAMP causes conformational changes that promote large increases in light output, which can be measured by a luminescence detector. […] The assay was started the following morning by adding an equal volume of CO2-independent media containing 4% v/v dilution of the GloSensor substrate (Promega, cat #E1291) to all wells. The cell plate was incubated at RT for 2 h in the dark. The Biomek i7 (Beckman Coulter) instrument was used for the liquid handling steps. To generate duplicate dose response curves, 3-fold serially diluted compounds were added in to the cell assay plate to a final volume of 60 μL with final concentrations ranging from 100 nM through 0.03 pM in CO2-independent media containing 0.1% BSA, 0.5 mM IBMX and 0.4% DMSO. […] Curve fitting for EC50 determinations was performed in the Helios module of the software package DAVID. The 4-parameter logistic model, Hill slope was used: y=Ainf+(A0−Ainf)/(1+(x/AC50)^Hill Slope), where y is the functional response; x is the compound concentration; A0 is the minimum value (at 0 dose); Ainf is the maximum value (at infinite dose); AC50 corresponds to the point of inflection (i.e., the point on the sigmoid shaped curve halfway between A0 and Ainf). The EC50 value was represented by the AC50 value calculated from Helios in μM. Emax is the maximal activity detected within the concentration range, derived from the fitted curve.
The HEK293-SNAP-hGLP1R stable cell clone that yielded the desired response was used for human GLP1R cAMP agonist assay.

human GLP1R [2] = biological target: T2, human GLP1R (Homo sapiens, UniProt P43220); assay: Human GLP1R DERET recycling assay; details: for Receptor recycled mean: maximum receptor recycled as proportion of amount internalized; for T1/2 mean: rate at which receptor recycled back to the membrane after Exendin 9-39
Method: The extent to which agonists internalize or allow recycling of the human GLP1R was determined based on an optimized version of a RealTime FRET-based ‘DERET’ (Dissociation Enhanced Resonance Energy Transfer) assay. The technology relies on labeling of the SNAP-tagged GPCR with a SNAP-Lumi-Terbium (donor fluorophore, Cisbio, cat #SSNPTBD). The compounds are incubated with the cells over-expressing the GPCR of interest in the presence of an excess of fluorescein (acceptor fluorophore). When the GPCR is on the cell surface, the donor signal is quenched by the acceptor and the donor/acceptor ratio is low. As the GPCR internalizes, the donor signal is no longer quenched, and the acceptor is no longer excited so the donor/acceptor ratio increases. The addition of an excess of antagonist blocks further receptor internalization, allowing the receptor to recycle back to the membrane leading to a subsequent reduction in the donor/acceptor ratio. […] To generate triplicate dose response curves, compounds were serially diluted 3-fold in assay buffer, then added to the cell assay plate to a final volume of 40 μL and final top concentrations starting at 3 μM or less (depending on the case). […] EC0 wells with buffer only were also included. The plate FRET fluorescence was measured immediately using a Perkin Elmer Envision with LANCE/DELFIA D400 single mirror, excitation filter X320, and emission filters M615_203 (donor emission) and M515 (acceptor emission), and then measured every 30 min. […] Plates were kept at 37° C. between reads. Data was expressed as the ratio of donor/acceptor emissions using Microsoft Excel and plotted in GraphPad Prism.
Using this model, we determined a T1/2 rate at which the receptor recycled back to the membrane. We also determined a maximum percentage of receptor recycled as a proportion of the amount internalized initially.
The lower the internalization rate and the faster the receptor recycling rate the more the receptor is retained at the membrane.

human GLP1R [3] = biological target: T2, human GLP1R; assay: Human GLP1R DERET internalization assay
human GLP1R (hGLP1R) [4] = biological target: T1, human GLP1R (hGLP1R); assay: Human GLP1R β-arrestin recruitment assay (PathHunter); design: GeneArt (insert) 93-0164 (CHO-K1-EA parental cells); 93-0491 (pCMV PK vector bundle); host or cells: PathHunter CHO-K1-EA parental cells, single clone 1; details: for EC50: CHO-hGLP1R-β-arrestin cells
Target sequence in this assay (P43220 24-463): as above
Target sequence in this assay (P32121 whole entry partner): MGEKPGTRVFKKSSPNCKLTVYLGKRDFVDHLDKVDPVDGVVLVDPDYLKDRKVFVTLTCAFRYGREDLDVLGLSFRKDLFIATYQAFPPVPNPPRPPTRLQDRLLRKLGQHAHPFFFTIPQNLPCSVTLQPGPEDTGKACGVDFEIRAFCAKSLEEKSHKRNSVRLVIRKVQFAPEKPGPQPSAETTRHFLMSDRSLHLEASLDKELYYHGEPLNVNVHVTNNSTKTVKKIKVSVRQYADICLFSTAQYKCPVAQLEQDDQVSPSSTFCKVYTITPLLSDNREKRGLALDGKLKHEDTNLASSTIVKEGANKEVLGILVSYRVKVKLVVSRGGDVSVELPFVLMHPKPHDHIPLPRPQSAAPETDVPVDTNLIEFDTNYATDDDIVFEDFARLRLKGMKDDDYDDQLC
Method: The extent to which agonists recruited β-arrestin was measured using the PathHunter® β-arrestin assay (DiscoverX). This assay measures binding of β-arrestin to the receptor using an enzyme complementation approach. […] When β-arrestin is recruited to the receptor the enzyme becomes active and generates luminescence in the presence of a chemiluminescent substrate (PathHunter® Detection Kit, DiscoverX cat #93-0001). Luminescence can be measured on a relevant detector. […] The following day, agonists were prepared at 5 times the final required concentration. To generate triplicate dose response curves, compounds were serially diluted 3-fold in assay buffer (HBSS, 10 mM Hepes and 0.1% BSA), then added to the cell assay plate to a final volume of 25 μL and final top concentrations starting at 3 μM or less, depending on the compound. […] The plate was incubated at 37° C., 5% CO2 with humidity for 2 h after adding the compounds to the cells. […] The plate was incubated for an additional hour in the dark at RT. […] Curve fitting for EC50 determinations was performed using GraphPad Prism. The 4-parameter logistic model, Hill slope was used: Y=Bottom+(Top−Bottom)/(1+10^((Log EC50−X)*Hill Slope)), where Y is the functional response; X is the compound concentration; bottom is A0 or the minimum value (at 0 dose); top is Ainf or the maximum value (at infinite dose); EC50 is the point of inflection (i.e., the point on the sigmoid shaped curve halfway between A0 and Ainf). The EC50 value was calculated in μM.

T2 sequence (P43220 24-463): as the sequence (P43220 24-463) above

Row | SMILES | Emax (human GLP1R (hGLP1R) [1]) [%] | Receptor recycled mean (human GLP1R [2]) [%] | T1/2 mean (human GLP1R [2]) [h] | Emax (human GLP1R [3]) [%] | Emax (human GLP1R (hGLP1R) [4]) [%] | EC50 (human GLP1R (hGLP1R) [4]) [nM] | EC50 (human GLP1R [3]; receptor internalization, HEK293-SNAP-hGLP1R-GloSensor cells) [nM]
1 | CCCCCCCCCCCC(CCCCCCCCCCC(=O)O)(C(=O)O)C(=O)NCCOCCOCCOCCOCCOCCOCCOCCOCCOCCOCCOCCOCCOCCOCCOCCOCCOCCOCCOCCOCCOCCOCCOCCOCCC(=O)NCCCC[C@H](NC(=O)[C@H](C)NC(=O)[C@H](C)NC(=O)[C@H](CCC(N)=O)NC(=O)CNC(=O)[C@H](CCC(=O)O)NC(=O)[C@H](CC(C)C)NC(=O)[C@H](Cc1ccc(O)cc1)NC(=O)[C@H](CO)NC(=O)[C@H](CO)NC(=O)[C@@H](NC(=O)[C@H](CC(=O)O)NC(=O)[C@H](CO)NC(=O)[C@@H](NC(=O)[C@H](Cc1ccccc1)NC(=O)[C@@H](NC(=O)CNC(=O)[C@H](CCC(=O)O)NC(=O)C(C)(C)NC(=O)[C@@H](N)Cc1c[nH]cn1)[C@@H](C)O)[C@@H](C)O)C(C)C)C(=O)N[C@@H](CCC(=O)O)C(=O)N[C@@H](Cc1ccccc1)C(=O)N[C@H](C(=O)N[C@@H](C)C(=O)N[C@@H](Cc1c[nH]c2ccccc12)C(=O)N[C@@H](CC(C)C)C(=O)N[C@H](C(=O)N[C@@H](CCCNC(=N)N)C(=O)NCC(=O)N[C@@H](CCCNC(=N)N)C(=O)NCC(=O)O)C(C)C)[C@@H](C)CC (stereo partly drawn) [Compound 1] | 105 | 65 |  |  |  |  | 
2 | CCCCCCCCCCC[C@@](CCCCCCCCCCC(=O)O)(C(=O)O)C(=O)NCCOCCOCCOCCOCCOCCOCCOCCOCCOCCOCCOCCOCCOCCOCCOCCOCCOCCOCCOCCOCCOCCOCCOCCOCCC(=O)NCCCC[C@H](NC(=O)[C@H](C)NC(=O)[C@H](C)NC(=O)[C@H](CCC(N)=O)NC(=O)CNC(=O)[C@H](CCC(=O)O)NC(=O)[C@H](CC(C)C)NC(=O)[C@H](Cc1ccc(O)cc1)NC(=O)[C@H](CO)NC(=O)[C@H](CO)NC(=O)[C@@H](NC(=O)[C@H](CC(=O)O)NC(=O)[C@H](CO)NC(=O)[C@@H](NC(=O)[C@H](Cc1ccccc1)NC(=O)[C@@H](NC(=O)CNC(=O)[C@H](CCC(=O)O)NC(=O)C(C)(C)NC(=O)[C@@H](N)Cc1c[nH]cn1)[C@@H](C)O)[C@@H](C)O)C(C)C)C(=O)N[C@@H](CCC(=O)O)C(=O)N[C@@H](Cc1ccccc1)C(=O)N[C@H](C(=O)N[C@@H](C)C(=O)N[C@@H](Cc1c[nH]c2ccccc12)C(=O)N[C@@H](CC(C)C)C(=O)N[C@H](C(=O)N[C@@H](CCCNC(=N)N)C(=O)NCC(=O)N[C@@H](CCCNC(=N)N)C(=O)NCC(=O)O)C(C)C)[C@@H](C)CC [Compound 2] | 115 | 68 | 1.19 |  |  |  | 
3 | CCCCCCCCCCC[C@](CCCCCCCCCCC(=O)O)(C(=O)O)C(=O)NCCOCCOCCOCCOCCOCCOCCOCCOCCOCCOCCOCCOCCOCCOCCOCCOCCOCCOCCOCCOCCOCCOCCOCCOCCC(=O)NCCCC[C@H](NC(=O)[C@H](C)NC(=O)[C@H](C)NC(=O)[C@H](CCC(N)=O)NC(=O)CNC(=O)[C@H](CCC(=O)O)NC(=O)[C@H](CC(C)C)NC(=O)[C@H](Cc1ccc(O)cc1)NC(=O)[C@H](CO)NC(=O)[C@H](CO)NC(=O)[C@@H](NC(=O)[C@H](CC(=O)O)NC(=O)[C@H](CO)NC(=O)[C@@H](NC(=O)[C@H](Cc1ccccc1)NC(=O)[C@@H](NC(=O)CNC(=O)[C@H](CCC(=O)O)NC(=O)C(C)(C)NC(=O)[C@@H](N)Cc1c[nH]cn1)[C@@H](C)O)[C@@H](C)O)C(C)C)C(=O)N[C@@H](CCC(=O)O)C(=O)N[C@@H](Cc1ccccc1)C(=O)N[C@H](C(=O)N[C@@H](C)C(=O)N[C@@H](Cc1c[nH]c2ccccc12)C(=O)N[C@@H](CC(C)C)C(=O)N[C@H](C(=O)N[C@@H](CCCNC(=N)N)C(=O)NCC(=O)N[C@@H](CCCNC(=N)N)C(=O)NCC(=O)O)C(C)C)[C@@H](C)CC [Compound 3] |  | 69 | 1.24 |  |  |  | 
4 | CCCCCCCCCCCC(CCCCCCCCCCC(=O)O)(C(=O)O)C(=O)NCCOCCOCCOCCOCCOCCOCCOCCOCCC(=O)NCCCC[C@H](NC(=O)[C@H](C)NC(=O)[C@H](C)NC(=O)[C@H](CCC(N)=O)NC(=O)CNC(=O)[C@H](CCC(=O)O)NC(=O)[C@H](CC(C)C)NC(=O)[C@H](Cc1ccc(O)cc1)NC(=O)[C@H](CO)NC(=O)[C@H](CO)NC(=O)[C@@H](NC(=O)[C@H](CC(=O)O)NC(=O)[C@H](CO)NC(=O)[C@@H](NC(=O)[C@H](Cc1ccccc1)NC(=O)[C@@H](NC(=O)CNC(=O)[C@H](CCC(=O)O)NC(=O)C(C)(C)NC(=O)[C@@H](N)Cc1c[nH]cn1)[C@@H](C)O)[C@@H](C)O)C(C)C)C(=O)N[C@@H](CCC(=O)O)C(=O)N[C@@H](Cc1ccccc1)C(=O)N[C@H](C(=O)N[C@@H](C)C(=O)N[C@@H](Cc1c[nH]c2ccccc12)C(=O)N[C@@H](CC(C)C)C(=O)N[C@H](C(=O)N[C@@H](CCCNC(=N)N)C(=O)NCC(=O)N[C@@H](CCCNC(=N)N)C(=O)NCC(=O)O)C(C)C)[C@@H](C)CC (stereo partly drawn) [Compound 4] | 119 | 65 |  | 100 | 84 |  | 
5 | CC[C@H](C)[C@H](NC(=O)[C@H](Cc1ccccc1)NC(=O)[C@H](CCC(=O)O)NC(=O)[C@H](CCCCNC(=O)CCOCCOCCOCCOCCOCCOCCOCCOCCOCCOCCOCCOCCOCCOCCOCCOCCOCCOCCOCCOCCOCCOCCOCCOCCNC(=O)C(CCCCCCCCCCC(=O)O)(CCCCCCCCCCC(=O)O)C(=O)O)NC(=O)[C@H](C)NC(=O)[C@H](C)NC(=O)[C@H](CCC(N)=O)NC(=O)CNC(=O)[C@H](CCC(=O)O)NC(=O)[C@H](CC(C)C)NC(=O)[C@H](Cc1ccc(O)cc1)NC(=O)[C@H](CO)NC(=O)[C@H](CO)NC(=O)[C@@H](NC(=O)[C@H](CC(=O)O)NC(=O)[C@H](CO)NC(=O)[C@@H](NC(=O)[C@H](Cc1ccccc1)NC(=O)[C@@H](NC(=O)CNC(=O)[C@H](CCC(=O)O)NC(=O)C(C)(C)NC(=O)[C@@H](N)Cc1c[nH]cn1)[C@@H](C)O)[C@@H](C)O)C(C)C)C(=O)N[C@@H](C)C(=O)N[C@@H](Cc1c[nH]c2ccccc12)C(=O)N[C@@H](CC(C)C)C(=O)N[C@H](C(=O)N[C@@H](CCCNC(=N)N)C(=O)NCC(=O)N[C@@H](CCCNC(=N)N)C(=O)NCC(=O)O)C(C)C [Compound 6] | 111 | 70 | 1.15 | 92 | 75 | 70 | 
6 | CC[C@H](C)[C@H](NC(=O)[C@H](Cc1ccccc1)NC(=O)[C@H](CCC(=O)O)NC(=O)[C@H](CCCCNC(=O)CCOCCOCCOCCOCCOCCOCCOCCOCCOCCOCCOCCOCCOCCOCCOCCOCCOCCOCCOCCOCCOCCOCCOCCOCCNC(=O)C(CCCCCCCCCCCC(=O)O)(CCCCCCCCCCCC(=O)O)C(=O)O)NC(=O)[C@H](C)NC(=O)[C@H](C)NC(=O)[C@H](CCC(N)=O)NC(=O)CNC(=O)[C@H](CCC(=O)O)NC(=O)[C@H](CC(C)C)NC(=O)[C@H](Cc1ccc(O)cc1)NC(=O)[C@H](CO)NC(=O)[C@H](CO)NC(=O)[C@@H](NC(=O)[C@H](CC(=O)O)NC(=O)[C@H](CO)NC(=O)[C@@H](NC(=O)[C@H](Cc1ccccc1)NC(=O)[C@@H](NC(=O)CNC(=O)[C@H](CCC(=O)O)NC(=O)C(C)(C)NC(=O)[C@@H](N)Cc1c[nH]cn1)[C@@H](C)O)[C@@H](C)O)C(C)C)C(=O)N[C@@H](C)C(=O)N[C@@H](Cc1c[nH]c2ccccc12)C(=O)N[C@@H](CC(C)C)C(=O)N[C@H](C(=O)N[C@@H](CCCNC(=N)N)C(=O)NCC(=O)N[C@@H](CCCNC(=N)N)C(=O)NCC(=O)O)C(C)C [Compound 7] |  | 71 | 1.27 | 77 | 82 |  | 
7 | CC[C@H](C)[C@H](NC(=O)[C@H](Cc1ccccc1)NC(=O)[C@H](CCC(=O)O)NC(=O)[C@H](CCCCNC(=O)CCOCCOCCOCCOCCOCCOCCOCCOCCOCCOCCOCCOCCOCCOCCOCCOCCOCCOCCOCCOCCOCCOCCOCCOCCNC(=O)C(CCCCCCCCCCCCCC(=O)O)(CCCCCCCCCCCCCC(=O)O)C(=O)O)NC(=O)[C@H](C)NC(=O)[C@H](C)NC(=O)[C@H](CCC(N)=O)NC(=O)CNC(=O)[C@H](CCC(=O)O)NC(=O)[C@H](CC(C)C)NC(=O)[C@H](Cc1ccc(O)cc1)NC(=O)[C@H](CO)NC(=O)[C@H](CO)NC(=O)[C@@H](NC(=O)[C@H](CC(=O)O)NC(=O)[C@H](CO)NC(=O)[C@@H](NC(=O)[C@H](Cc1ccccc1)NC(=O)[C@@H](NC(=O)CNC(=O)[C@H](CCC(=O)O)NC(=O)C(C)(C)NC(=O)[C@@H](N)Cc1c[nH]cn1)[C@@H](C)O)[C@@H](C)O)C(C)C)C(=O)N[C@@H](C)C(=O)N[C@@H](Cc1c[nH]c2ccccc12)C(=O)N[C@@H](CC(C)C)C(=O)N[C@H](C(=O)N[C@@H](CCCNC(=N)N)C(=O)NCC(=O)N[C@@H](CCCNC(=N)N)C(=O)NCC(=O)O)C(C)C [Compound 8] | 106 |  |  |  |  |  | 
8 | CC[C@H](C)[C@H](NC(=O)[C@H](Cc1ccccc1)NC(=O)[C@H](CCC(=O)O)NC(=O)[C@H](CCCCNC(=O)CCOCCOCCOCCOCCOCCOCCOCCOCCOCCOCCOCCOCCOCCOCCOCCOCCOCCOCCOCCOCCOCCOCCOCCOCCNC(=O)C(CCCCCCCCCCCCCCC(=O)O)(CCCCCCCCCCCCCCC(=O)O)C(=O)O)NC(=O)[C@H](C)NC(=O)[C@H](C)NC(=O)[C@H](CCC(N)=O)NC(=O)CNC(=O)[C@H](CCC(=O)O)NC(=O)[C@H](CC(C)C)NC(=O)[C@H](Cc1ccc(O)cc1)NC(=O)[C@H](CO)NC(=O)[C@H](CO)NC(=O)[C@@H](NC(=O)[C@H](CC(=O)O)NC(=O)[C@H](CO)NC(=O)[C@@H](NC(=O)[C@H](Cc1ccccc1)NC(=O)[C@@H](NC(=O)CNC(=O)[C@H](CCC(=O)O)NC(=O)C(C)(C)NC(=O)[C@@H](N)Cc1c[nH]cn1)[C@@H](C)O)[C@@H](C)O)C(C)C)C(=O)N[C@@H](C)C(=O)N[C@@H](Cc1c[nH]c2ccccc12)C(=O)N[C@@H](CC(C)C)C(=O)N[C@H](C(=O)N[C@@H](CCCNC(=N)N)C(=O)NCC(=O)N[C@@H](CCCNC(=N)N)C(=O)NCC(=O)O)C(C)C [Compound 9] | 107 |  |  | 22 | 37 | > 2000 | > 1000
